{
  "source": "patent US12071430B2",
  "about": "(The Johns Hopkins University, priority 2011, dated 2024)",
  "key": {"VEGFR2 [1]": {"test_system": "VEGFR2", "assay": "Western blot, VEGFR2 glycosylation in HUVEC", "format": "cell-based, human", "conditions": "24 h", "description": "mTOR and VEGFR2 inhibition. We then determined the effects of compound 14 on AMPK/mTOR activity and VEGFR2 glycosylation. […] We observed two VEGFR2 bands by Western blotting, representing differentially glycosylated forms of the receptor, with the higher molecular weight band being more predominant in untreated HUVEC. […] The high molecular weight species of VEGFR2 disappeared upon treatment with compound 14 at concentrations of 0.5 μM or higher (FIG. 10A). We next determined whether compound 14 and other analogs affected cellular localization of VEGFR2 using immunofluorescence (FIG. 10B). […] In contrast, in the untreated cells VEGFR2 was uniformly distributed in small puncta throughout the cytoplasm. As a critical component of lipid rafts, cholesterol is pivotal to intracellular transportation and cell signaling.\nWestern blot. […] Then cells were lysed using RIPA buffer and the protein concentration were measured and normalized. After electrophoresis and transfer onto 0.45 um nitrocellulose membranes, the membranes were bolted with 5% BSA for 1 h and then incubated overnight at 4° C. Secondary antibody was applied to each membrane for 1 hour. Bolts were imaged using Syngene PXi imaging system after adding chemiluminescent substrate. […]"}, "CYP3A4": {"biological_target": "T1, CYP3A4 (Homo sapiens, UniProt P08684)", "T1 construct": "purchased ThermoFisher P2857; host or cells: baculosomes (insect-cell microsomes, own knowledge)", "T1 sequence (P08684 whole entry)": "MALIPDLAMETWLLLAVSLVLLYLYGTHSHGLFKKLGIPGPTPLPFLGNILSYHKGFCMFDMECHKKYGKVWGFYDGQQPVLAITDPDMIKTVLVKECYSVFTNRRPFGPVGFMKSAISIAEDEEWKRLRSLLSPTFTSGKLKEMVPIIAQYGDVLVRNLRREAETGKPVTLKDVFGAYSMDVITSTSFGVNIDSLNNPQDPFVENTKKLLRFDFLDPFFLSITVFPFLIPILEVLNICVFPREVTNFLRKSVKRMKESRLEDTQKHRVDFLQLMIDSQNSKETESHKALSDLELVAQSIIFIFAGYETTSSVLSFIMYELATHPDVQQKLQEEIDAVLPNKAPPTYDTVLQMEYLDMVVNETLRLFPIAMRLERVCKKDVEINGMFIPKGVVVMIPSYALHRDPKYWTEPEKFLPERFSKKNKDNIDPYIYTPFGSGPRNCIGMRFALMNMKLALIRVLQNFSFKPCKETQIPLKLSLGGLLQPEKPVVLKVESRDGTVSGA", "assay": "CYP3A4 enzyme assay (Vivid CYP3A4 Green Screening Kit)", "format": "in vitro ADME", "outline": "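Cell-free fluorescence assay with CYP3A4 baculosomes preincubated with drug 10 min at 37° C before Vivid substrate addition. Fluorescence (ex/em 485/520) read every 1 min for 60 minutes. Compounds tested at 1 μM final concentration.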"}, "HUVEC [2]": {"test_system": "HUVEC", "assay": "HUVEC proliferation, [3H]-thymidine incorporation assay", "format": "cell-based, human", "outline": "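Proliferation read as [3H]-thymidine uptake (1 μCi, 6 h pulse) after 24 h drug treatment in triplicate. Cells: HUVEC at passage ≤8 grown in EGM-2, plated 2000/well the night before; IC50 fitted from scintillation counts.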"}, "HUVECs": {"test_system": "HUVECs", "assay": "Filipin staining of intracellular cholesterol (NPC phenotype)", "format": "cell-based, human", "conditions": "HUVEC, 0.2 μM, 24 h", "excerpt": "Nieman-Pick C phenotype and mTOR inhibition. […] We thus determined whether compound 48 shared the same mechanism with itraconazole. The intracellular cholesterol was detected using the cholesterol-binding fluorescent dye filipin. […] It is known that AMPK activation leads to mTOR inhibition.\nInhibition of NPC1. NPC1 plays an essential role in cholesterol export from the endolysosome. […] At a close view (FIG. 9B), the linear pyridinyl-piperizin-1-yl-phenyl core of compound 14 nestled into the hydrophobic channel created by the transmembrane helix. The isobutyl tail faced toward the open entrance of this channel. The tetrazole moiety pointed into the closed end of the pocket and interacted with the hydroxyl group of Tyr1225 via hydrogen bonding.\nFilipin staining. 2000 HUVECs were plated in chamber slide with 1 ml media and allowed to settle overnight. […] The the cells were fixed with 4% paraformaldehyde for 15 min. After washed, cells were incubated with 500 ul 50 ug/ml filipin solution for 1 hour in the dark. Then the cells were washed twice with PBS, mounted and covered with coverslip. The images were taken using confocal microscope under 360/460 nm."}, "mTOR": {"test_system": "mTOR", "assay": "Western blot, mTOR inhibition in HUVEC", "format": "cell-based, human", "conditions": "for mTOR inhibition (phosphorylation of mTOR / p70 S6K): 24 h", "description": "(§1) Western blot. […] Then cells were lysed using RIPA buffer and the protein concentration were measured and normalized. After electrophoresis and transfer onto 0.45 um nitrocellulose membranes, the membranes were bolted with 5% BSA for 1 h and then incubated overnight at 4° C. Secondary antibody was applied to each membrane for 1 hour. Bolts were imaged using Syngene PXi imaging system after adding chemiluminescent substrate. The following antibodies were used for the assay: AMPKα (1:1,000, cell signaling, #2532s), phosphor-AMPKα (1:1,000, cell signaling #2535s), ACC (1:1,000, cell signaling #3662s), phosphor-ACC (1:1,000, cell signaling, #3661s), mTOR (1:1,000, cell signaling, #2972S), phosphor-mTOR (1:1,000, cell signaling, #9234s), p70 S6 Kinase (1:1,000, senta cruz, #sc-8418), phosphor-p70 S6 Kinase (1:1,000, cell signaling, #3662s), anti-Rabbit IgG (1:10000, GE lifesciences, #NA934V)."}, "HUVEC [3]": {"test_system": "HUVEC", "assay": "HUVEC proliferation, [3H]-thymidine incorporation assay", "format": "cell-based", "conditions": "Homo sapiens, mean ± SD, three independent experiments, read-out: HUVEC inhibition IC50"}, "[4]": {"assay": "Aqueous solubility test in 0.001N HCl", "format": "physicochemical", "conditions": "for solubility at 24 h: 0.001 N HCl aqueous buffer, simulated gastric fluid, kinetic from dmso stock, thermodynamic solubility, HPLC, pH=3, room temperature", "description": "The inhibitory effects of the new analogs on HUVEC proliferation were measured using a [3H]-thymidine incorporation assay. The log P values, used as an indicator of lipophilicity, were calculated using ALOGPS2.1 software. Aqueous solubility is a key physiochemical property relevant for oral absorption. We determined the solubility of each analog in 0.001 N HCl (pH=3), which represents the acidic human gastric fluid.\nAqueous solubility test. In a 1.5 mL microcentrifuge tube, 2 ul of 10 mM compound stock solution in DMSO was added to 1 mL 0.001N HCl aqueous buffer to obtain saturated solution. The resulting mixture was shaken under 600 rpm for 24 h at room temperature. Then the tube was centrifuged at 13,000 rpm for 5 min to remove the undissolved compound. 100 ul of the supernatant was injected to an Agilent 6120 LC/MS for analysis. The mass spectrometry data was collected under SIM/Scan mode. The ions of compound Exact Mass+1 and Exact Mass+23 were monitored as selected ion monitoring (SIM) for peak area integration. Solubility was calculated according to the concentration standard curve of each compound."}, "AMPK": {"test_system": "AMPK", "assay": "Western blot, AMPK activation in HUVEC", "format": "cell-based, human", "conditions": "24 h, dose-dependent", "description": "as §1"}, "HUVEC [5]": {"test_system": "HUVEC", "assay": "HUVEC tube formation assay on Matrigel", "format": "cell-based", "conditions": "Homo sapiens, 24 h, read-out: inhibition of HUVEC tube formation (total tube length)"}, "VEGFR2 [6]": {"test_system": "VEGFR2", "assay": "Immunofluorescence assay, VEGFR2 cellular localization", "format": "cell-based, human", "conditions": "HUVEC, 2 μM, 24 h, colocalized with GM130", "description": "Immunofluorescence assay. HUVECs (5000) were seeded in 4-well chamber slide (Nunc™ Lab-Tek™ II) with 1 mL media and cultured overnight. Cells were treated with […] drugs or DMSO for 24 h. The media was then aspirated and washed 3 times with PBS. Cells were fixed with 4% paraformaldehyde for 15 min, washed three times with PBS, permeabilized with 0.1% Triton X and washed again. 2% BSA blocking buffer was applied to the cells for 1 h. The primary antibodies of VEGFR2 (1:50, cell signaling, #2479) and GM130 (1:1000, BD, #610823) were incubated overnight at 4° C. After washing 3 times with 0.5% BSA in PBS, secondary antibody solutions (1:1000 goat anti-rabbit Alexa Fluor 488, Invitrogen, #A11008 and 1:1000 goat anti-mouse Alexa Fluor 594, Invitrogen, A11005) were applied at room temperature for 1 h in the dark. After washing 3 times, slides were incubated in 0.1 μg/mL DAPI solution for 5 min and rinsed 2 times with PBS. The coverslip was mounted with Immunount (Fisher) and sealed with nail polish. Confocal images were taken using Zeiss LSM700 confocal microscope with 20× lenses."}, "[7]": {"assay": "Earlier SAR studies, anti-angiogenic activity"}, "[8]": {"assay": "Earlier SAR studies, hepatotoxicity"}, "[9]": {"conditions": "background statement; cited from earlier work"}},
  "note": "Where two headings read alike, the source gives them in different places.",
  "data": [
    {"smiles": "CCC(C)n1ncn(-c2ccc(N3CCN(c4ccc(OC[C@@H]5CO[C@@](Cn6cnnn6)(c6ccc(Cl)cc6Cl)O5)cn4)CC3)cc2)c1=O", "note": "(stereo partly drawn) [Compound 14, 4-(4-(4-(5-(((2S,4R)-2-((1H-tetrazol-1-yl)methyl)-2-(2,4-dichlorophenyl)-1,3-dioxolan-4-yl)methoxy)pyridin-2-yl)piperazin-1-yl)phenyl)-2-(sec-butyl)-2,4-dihydro-3H-1,2,4-triazol-3-one]", "values": [
      {"measurement": "VEGFR2 glycosylation, band mobility", "setting": "VEGFR2 [1]", "result": "mobility shift to the lower molecular weight, hypoglycosylated band"},
      {"measurement": "concentration at which the high molecular weight species of VEGFR2 disappeared", "setting": "VEGFR2 [1]", "result": "≥ 0.5", "unit": "µM"},
      {"measurement": "IC50", "setting": "CYP3A4; dose-response, FIG. 2 / FIG. 6, read-out: IC50 for CYP3A4 inhibition", "result": 95, "unit": "µM"},
      {"measurement": "IC50", "setting": "HUVEC [2]; [3H]-thymidine incorporation, mean ± SD, three independent experiments, read-out: HUVEC inhibition IC50", "result": "0.0771 ± 0.0119", "unit": "µM"},
      {"measurement": "induction of NPC phenotype (cholesterol accumulation)", "setting": "HUVECs", "result": "massive build-up of cholesterol"},
      {"measurement": "S6K phosphorylation at higher doses", "setting": "mTOR; 1 μM and 2 μM", "result": "completely abolished"},
      {"measurement": "mTOR inhibition (phosphorylation of mTOR / p70 S6K)", "setting": "mTOR", "result": "potently inhibited"},
      {"measurement": "IC50", "setting": "HUVEC [3]", "result": 0.077, "unit": "µM"},
      {"measurement": "increase in solubility compared to itraconazole", "setting": "[4]; 0.001N HCl", "result": "over 90 fold"},
      {"measurement": "solubility at 24 h", "setting": "[4]", "result": 0.951, "unit": "µg/mL"},
      {"measurement": "AMPK activation (phosphorylation of AMPK Thr172 / substrate ACC)", "setting": "AMPK", "result": "activated AMPK"},
      {"measurement": "inhibition at 3 µM", "setting": "HUVEC [5]", "result": 70, "unit": "%"},
      {"measurement": "VEGFR2 cellular localization", "setting": "VEGFR2 [6]", "result": "accumulated in the perinuclear region"}
    ]},
    {"smiles": "CCC(C)n1ncn(-c2ccc(N3CCN(c4ccc(OC[C@@H]5CO[C@@](Cn6cnnn6)(c6ccc(Cl)cc6Cl)O5)cc4)CC3)cc2)c1=O", "note": "(stereo partly shown) [Compound 24]", "values": [
      {"measurement": "CYP3A4 inhibition, in words", "setting": "CYP3A4; dose response or compared with itraconazole", "result": "significantly reduced CYP3A4 inhibition"},
      {"measurement": "induction of NPC phenotype (cholesterol accumulation)", "setting": "HUVECs; listed as compound 24", "result": "massive build-up of cholesterol"},
      {"measurement": "anti-angiogenic activity, in words", "setting": "[7]", "result": "increased activity"},
      {"measurement": "solubility at 24 h", "setting": "[4]", "result": 0.321, "unit": "µg/mL"}
    ]},
    {"smiles": "CCC(C)n1ncn(-c2ccc(N3CCN(c4ccc(OC[C@@H]5CO[C@@](Cn6cnnn6)(c6ccc(Cl)cc6Cl)O5)cc4)CC3)cc2)c1=O", "note": "(stereo partly drawn) [Compound 48, 4-(4-(4-(4-(((2S,4R)-2-((1H-tetrazol-1-yl)methyl)-2-(2,4-dichlorophenyl)-1,3-dioxolan-4-yl)methoxy)phenyl)piperazin-1-yl)phenyl)-1-sec-butyl-1H-1,2,4-triazol-5(4H)-one]", "values": [
      {"measurement": "CYP3A4 Inhibition (compared to intracozanole at 1 um)", "setting": "CYP3A4; % enzyme inhibition at 1 uM drug / % enzyme inhibition at 1 uM itraconazole", "result": 0.02},
      {"measurement": "IC50 at 60 min", "setting": "CYP3A4; human, recombinant CYP3A4 baculosomes (cell-free), probe Vivid substrate (Vivid CYP3A4 Green Screening Kit), dose-response, FIG. 2 / FIG. 6, read-out: IC50 for CYP3A4 inhibition", "result": "> 20", "unit": "µM"},
      {"measurement": "EC50 at 60 min", "setting": "CYP3A4; human, recombinant CYP3A4 baculosomes, probe Vivid substrate (Vivid CYP3A4 Green Screening Kit), read-out: EC50 against CYP3A4", "result": "> 20", "unit": "µM"},
      {"measurement": "Proliferation (IC50/IC50 Itra)", "setting": "HUVEC [2]; HUVEC IC50 relative to itraconazole", "result": 0.4},
      {"measurement": "induction of NPC phenotype (cholesterol accumulation)", "setting": "HUVECs; listed as compound 48", "result": "induced NPC phenotype"},
      {"measurement": "mTOR inhibition (phosphorylation of mTOR / p70 S6K)", "setting": "mTOR", "result": "decrease in the phosphorylation of mTOR"},
      {"measurement": "AMPK activation (phosphorylation of AMPK Thr172 / substrate ACC)", "setting": "AMPK", "result": "increased the phosphorylation of AMPK"}
    ]},
    {"smiles": "CCC(C)n1ncn(-c2ccc(N3CCN(c4ccc(OC[C@@H]5CO[C@@](Cn6cncn6)(c6ccc(Cl)cc6Cl)O5)cc4)CC3)cc2)c1=O", "note": "(stereo partly shown) [IT-C]", "values": [
      {"measurement": "anti-angiogenic activity, in words", "setting": "[7]", "result": "strongest anti-angiogenic activity"},
      {"measurement": "hepatotoxicity, in words", "setting": "[8]", "result": "significantly reduced hepatotoxicity"}
    ]},
    {"smiles": "CCC(C)n1ncn(-c2ccc(N3CCN(c4ccc(OCC5COC(Cn6cncn6)(c6ccc(Cl)cc6Cl)O5)cc4)CC3)cc2)c1=O", "note": "(stereo not shown) [itraconazole, reference compound]", "values": [
      {"measurement": "solubility at 24 h", "setting": "[4]", "result": 0.0101, "unit": "µg/mL"},
      {"measurement": "log P", "setting": "[9]", "result": 5.3}
    ]}
  ]
}
